According to the supplement of paper PMC5908809:

Assays:
[1] = tested on: normal NK cells expanded with K562-aAPC; test: percent inhibition of viability; higher = more inhibition; settings: 72 h, IL-2 2.5 ng/mL
Description: (§1)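 Drug sensitivity and resistance testing on K562-aAPC-expanded normal NK cells: 5 concentrations (10-fold steps over a 10,000-fold range), 72 h at 37 °C, viability by CellTiter-Glo normalised to DMSO and benzethonium chloride controls; DSS from the fitted curve.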

[2] = tested on: DERL-7 (IL-2 2.5 ng/mL); test: as above; settings: 72 h
[3] = tested on: IMC-1 (IL-2 20 ng/mL); test: as above; settings: 72 h
[4] = tested on: KAI3 (IL-2 2.5 ng/mL); test: as above; settings: 72 h
[5] = tested on: KHYG-1 (IL-2 2.5 ng/mL); test: as above; settings: 72 h
[6] = tested on: NK-92 (IL-2 2.5 ng/mL); test: as above; settings: 72 h
[7] = tested on: NK-YS (IL-2 2.5 ng/mL); test: as above; settings: 72 h
[8] = tested on: NKL (IL-2 2.5 ng/mL); test: as above; settings: 72 h
[9] = tested on: SNK-6 (IL-2 2.5 ng/mL); test: as above; settings: 72 h
[10] = tested on: YT (IL-2 2.5 ng/mL); test: as above; settings: 72 h
[11] = tested on: normal primary NK cells, pool 1 (3 donors) (IL-2 2.5 ng/mL); test: as above; settings: 72 h
[12] = tested on: normal primary NK cells, pool 1 (3 donors), resting (IL-2 0 ng/mL); test: as above; settings: 72 h
[13] = tested on: normal primary NK cells, pool 2 (3 donors) (IL-2 2.5 ng/mL); test: as above; settings: 72 h
[14] = tested on: normal primary NK cells, pool 3 (3 donors) (IL-2 2.5 ng/mL); test: as above; settings: 72 h
[15] = tested on: normal NK cells expanded with K562-aAPC; test: drug sensitivity score (DSS) (DSS units); higher = more sensitive; extreme values may be limits of the assay; settings: 72 h; IL-2 2.5 ng/mL
Description: as §1

[16] = tested on: DERL-7 (IL-2 2.5 ng/mL); test: as above; settings: 72 h
[17] = tested on: IMC-1 (IL-2 20 ng/mL); test: as above; settings: 72 h
[18] = tested on: KAI3 (IL-2 2.5 ng/mL); test: as above; settings: 72 h
[19] = tested on: KHYG-1 (IL-2 2.5 ng/mL); test: as above; settings: 72 h
[20] = tested on: NK-92 (IL-2 2.5 ng/mL); test: as above; settings: 72 h
[21] = tested on: NK-YS (IL-2 2.5 ng/mL); test: as above; settings: 72 h
[22] = tested on: NKL (IL-2 2.5 ng/mL); test: as above; settings: 72 h
[23] = tested on: SNK-6 (IL-2 2.5 ng/mL); test: as above; settings: 72 h
[24] = tested on: YT (IL-2 2.5 ng/mL); test: as above; settings: 72 h
[25] = tested on: normal primary NK cells, pool 1 (3 donors) (IL-2 2.5 ng/mL); test: as above; settings: 72 h
[26] = tested on: normal primary NK cells, pool 1 (3 donors), resting (IL-2 0 ng/mL); test: as above; settings: 72 h
[27] = tested on: normal primary NK cells, pool 2 (3 donors) (IL-2 2.5 ng/mL); test: as above; settings: 72 h
[28] = tested on: normal primary NK cells, pool 3 (3 donors) (IL-2 2.5 ng/mL); test: as above; settings: 72 h

CCNC(=O)c1noc(-c2cc(C(C)C)c(O)cc2O)c1-c1ccc(CN2CCOCC2)cc1 [Luminespib] (max concentration tested 1000 nM)
percent inhibition of viability [%]
Settings | 0.1 nM | 1 nM | 10 nM | 100 nM | 1000 nM
[1] | -2.12 | -2.95 | 97.5 | 97.4 | 97.4
[2] | 2.4 | 1.89 | 99.7 | 100 | 100
[3] | -0.63 | -3.7 | 51.6 | 99.6 | 99.7
[4] | 1.34 | 8.03 | 88.8 | 100 | 97.7
[5] | -1.01 | 1.79 | 47.7 | 102 | 99.4
[6] | -9.62 | -1.81 | 66.9 | 97.9 | 95
[7] | -0.03 | 4.35 | 89.3 | 98.7 | 97.7
[8] | -1.62 | -1.66 | 87.8 | 86.7 | 85.5
[9] | -5.65 | 9.52 | 35.8 | 85.2 | 87.3
[10] | -1.24 | -3.01 | 7.32 | 89.6 | 92.1
[11] | -3.81 | 5.41 | 76.8 | 82.5 | 86.2
[12] | -4.56 | -1.24 | 21.2 | 46.8 | 48.1
[13] | -11.3 | 0.74 | 74.2 | 74.9 | 76
[14] | -20 | -6.55 | 68.1 | 75.4 | 77.5

Settings | drug sensitivity score
[15] | 29.5
[16] | 30.7
[17] | 24.3
[18] | 29.8
[19] | 24
[20] | 25.4
[21] | 29.1
[22] | 26.9
[23] | 19.6
[24] | 17.6
[25] | 25.7
[26] | 11.5
[27] | 23.5
[28] | 22.2

Nc1cc(F)ccc1NC(=O)/C=C/c1cnn(C/C=C/c2ccccc2)c1 [RGFP966] (max concentration tested 10000 nM)
percent inhibition of viability [%]
Settings | 1 nM | 10 nM | 100 nM | 1000 nM | 10000 nM
[1] | 4.29 | 0.23 | 1.76 | 9.82 | 9.19
[2] | -5.83 | -2.09 | 9.7 | 22.7 | 77.1
[3] | -2.38 | 0.66 | 0.87 | 7.16 | 19.2
[4] | 3.23 | 7.54 | 1.59 | 11.1 | 70.5
[5] | -1.2 | 0.69 | 1.5 | 8.74 | 43.4
[6] | 3.38 | 1.97 | 18.1 | 20.7 | 79.9
[7] | -1.47 | 0.43 | 1.84 | 5.06 | 33.6
[8] | -2.36 | 10.4 | 5.66 | 29.4 | 82.3
[9] | 6.08 | 7.31 | 9.67 | 21 | 62.2
[10] | -2.17 | -1.29 | 1.57 | 1.53 | 26.1
[11] | -6.12 | -12 | 2.42 | -14.4 | -7.06
[12] | 0.87 | -9.67 | -2.19 | -2.37 | 16.1
[13] | -11.2 | -8.68 | 8.11 | 0.44 | 9.58
[14] | -1.19 | -0.09 | 10.8 | -6.25 | 4.39

Settings | drug sensitivity score
[15] | 0
[16] | 7.16
[17] | 1.17
[18] | 5.75
[19] | 3.64
[20] | 6.98
[21] | 2.39
[22] | 8.18
[23] | 5.69
[24] | 1.24
[25] | 0
[26] | 0.22
[27] | 0
[28] | 0
